Measurements as given in patent publication US12673041B2, “4-aminobut-2-enamide derivatives and salt thereof” (TAIHO PHARMACEUTICAL CO., LTD., priority 2019, dated 2026).
Like-named read-outs stand apart in the source and are kept apart here.

Tests used:
[1] = biological target: T1, activated KRAS in MIA PaCa-2 (Homo sapiens, UniProt P01116, G12C); assay: Amount of activated KRAS on KRAS-G12C mutant cell line MIA PaCa-2 (Ras GTPase Chemi ELISA); type: cell-based; conditions: for IC50: 1 hour with compound
T1 construct: host or cells: MIA PaCa-2
Experimental: NCI-H358 [H358, H358] (ATCC® CRL5807™), which is a KRAS-G12C mutant human lung cancer cell line, and MIA PaCa-2 (ATCC® CRL-1420™), which is a KRAS-G12C mutant human pancreas cancer cell line, were suspended in a 10% fetal bovine serum-containing RPMI1640 medium (manufactured by Thermo Fischer SCIENTIFIC), respectively. The cell suspension was seeded into a cell culture plate and cultured in an incubator containing 5% CO2 gas at 37° C. for 1 day. The lyophilized recombinant human EGF protein (R&D systems, Cat #: 236-EG-200) was dissolved in PBS to make 0.5 mg/ml solution. The EGF solution in PBS was diluted by 0.4% with the medium used for suspending cells and added to each cell-culture plate to give an EGF final concentration of 100 ng/ml, followed by leaving to stand at ambient temperature for 5 minutes. Then, the compounds obtained in the “Preparation of Compounds” section were used as test compounds and were dissolved in DMSO, and each test compound was diluted with DMSO to give a concentration 200 times the final concentration. The solution of the test compound in DMSO was diluted with the medium used for suspending cells and added to each well of the cell-culture plate to give a DMSO final concentration of 0.5%, followed by culture in an incubator containing 5% CO2 gas at 37° C. for another 1 hour. The amount of activated KRAS after 1 hour culture in the presence of the compound was measured using Ras GTPase Chemi ELISA Kit (manufactured by Active Motif). The ratio of KRAS activity was calculated from the following equation, and the concentration of the test compound at which activity was suppressed to 50% (IC50 (μM)) was determined. […] The Ratio of KRAS activity to control (%)=(T−BG)/(C−BG)×100 • T: the emission intensity in a well into which a test compound was added. • C: the emission intensity in a well into which a test compound was not added. • BG: the emission intensity in a well into which neither a test compound nor a cell suspension was added.

[2] = biological target: Gppcp-bound recombinant K-Ras4B G12C mutant protein (amino acids 1-169, C51S/C80L/C118S) (Homo sapiens, UniProt P01116, C118S/C51S/C80L/G12C); assay: KRASG12C binding assay (LC-MS compound binding rate); conditions: test compound final concentration 0.5 μM, 25° C., 1 hour
In short: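 Gppcp-bound K-Ras4B G12C (aa 1-169, C51S/C80L/C118S) at 50 nM in 1×TBS, 0.1 mM TCEP, 0.25 mM MgCl2, 50 μM Gppcp was incubated 1 hour at 25° C with compound at 0.5 μM final. Intact-protein LC-MS gave binding rate as single-adduct signal over total KRAS signal, graded A (≥80%) to E (<20%).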

[3] = MIA PaCa-2, with EGF 100 ng/ml, read-out: IC50 MIA PaCa-2 with EGF
[4] = MIA PaCa-2, without EGF, read-out: IC50 MIA PaCa-2 without EGF

IC50 [1, 3]	IC50 [1, 4]	SMILES	binding rate [2]	KRAS inhibition activity under EGF treatment ([1]; MIA PaCa-2, EGF treatment)
1 µM	0.78 µM	CCc1nc2cc(-c3cccc(NC(=O)c4ccc(NC(=O)/C=C/CN[C@H]5CC[C@H](OC)CC5)c(C#N)c4)c3)c(C(F)(F)F)cc2n1C [Example 1, 3-cyano-N-(3-(2-ethyl-1-methyl-6-(trifluoromethyl)-1H-benzo[d]imidazol-5-yl)phenyl)-4-((E)-4-(((1r, 4r)-4-methoxycyclohexyl)amino)but-2-enamido)benzamide]	A (A binding rate of 80% or more is rated “A”)	–
0.44 µM	0.3 µM	CO[C@H]1CC[C@H](NC/C=C/C(=O)Nc2ccc(C(=O)c3ccc4c(-c5cc6ncn(C)c6cc5C)cccn34)cc2C#N)CC1 [Example 4, (E)-N-(2-cyano-4-(8-(1,6-dimethyl-1H-benzo[d]imidazol-5-yl)indolizine-3-carbonyl)phenyl)-4-(((1r,4r)-4-methoxycyclohexyl)amino)but-2-enamide]	A (A binding rate of 80% or more is rated “A”)	–

SMILES	IC50 [1, 3]	IC50 [1, 4]	binding rate [2]	KRAS inhibition activity under EGF treatment ([1]; MIA PaCa-2, EGF treatment)
C=CC(=O)N1CCN(c2ncnc3c(F)c(-c4c(O)cccc4F)c(Cl)cc23)CC1 [ARS-1620, reference compound]	4.2 µM	0.65 µM	E (a binding rate of less than 20% is rated “E”)	attenuated by EGF treatment
